The values below come from patent US5998362A, “Conjugates useful in the treatment of prostate cancer” (priority 1997, dated 1999).

The structures appear in SMILES notation. Where a SMILES comes first, the peptide text is derived from it. [ ]: non-standard residue; d: D form. The star is where a group is joined. Doxorubicin(3'-N) = COc1cccc2c1C(=O)c1c(O)c3c(c(O)c1C2=O)C[C@@](O)(C(=O)CO)C[C@@H]3O[C@H]1C[C@H](N*)[C@H](O)[C@H](C)O1; Decanoyl(3,6,9-trioxa) = COCCOCCOCC(=O)*; Glyceroyl(2S) = O=C([C@@H](O)CO)*; Glyceroyl(2R) = O=C([C@H](O)CO)*; X1 = COCCOCCOCCOCCOCCOCCOCC(=O)*; hArg = N=C(N)NCCCC[C@H](N)C(=O)O; 3Pal = N[C@@H](Cc1cccnc1)C(=O)O; MeOCH2CH2OCH2CO = COCCOCC(=O)*; Chg = N[C@H](C(=O)O)C1CCCCC1; Nle = CCCC[C@H](N)C(=O)O; Glycolyl = O=C(CO)*; X3 = O=C(C(O)CO)*

The target in one data set is T1, free PSA (Homo sapiens, UniProt P07288). As to the kind of experiment: Recognition of oligopeptide-doxorubicin conjugates by free PSA (time to 50% cleavage, HPLC). The format is biochemical. Also on record: required for 50% cleavage of the noted oligopeptides with enzymatically active free PSA. Particulars: Table 3, DOX conjugates; 3 hours. On the procedure: If no salt is indicated for the conjugate, the free conjugate was tested.
T1 sequence (P07288 25-261): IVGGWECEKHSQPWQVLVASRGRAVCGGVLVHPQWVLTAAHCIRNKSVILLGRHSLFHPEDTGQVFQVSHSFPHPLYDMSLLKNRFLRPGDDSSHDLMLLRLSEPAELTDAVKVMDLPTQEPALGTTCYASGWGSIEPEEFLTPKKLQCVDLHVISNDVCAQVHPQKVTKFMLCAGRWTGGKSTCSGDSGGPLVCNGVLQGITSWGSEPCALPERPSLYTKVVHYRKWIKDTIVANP
Regarding `COCCOCCOCC(=O)N[C@@H](CO)C(=O)N[C@@H](CO)C(=O)N[C@@H](CO)C(=O)N[C@H](C(=O)N[C@@H](CCC(N)=O)C(=O)N[C@@H](CO)C(=O)N[C@H](CC(C)C)C(=O)N[C@H]1C[C@H](O[C@H]2C[C@](O)(C(=O)CO)Cc3c(O)c4c(c(O)c32)C(=O)c2c(OC)cccc2C4=O)O[C@@H](C)[C@H]1O)C1CCCCC1` [PEG(2)-SSSChgQ-S(dL)-DOX(3'), PEG(2)-SerSerSerChgGln-Ser(dLeu)-DOX (3')], the “Substrate cleavage by York PSA at 3 HOUR” value is reported as 46%.

Still in this data set, the particulars now being: Table 3; alternative PSA digestion buffer 12 mM Tris pH8.0, 25 mM NaCl, 0.5 mM CaCl2.
For `CCCC[C@H](NC(=O)[C@H](CO)NC(=O)[C@H](CCC(N)=O)NC(=O)[C@H](Cc1ccc(O)cc1)NC(=O)[C@H](CO)NC(=O)[C@H](CO)NC(=O)[C@H](CCCCNC(=N)N)NC(=O)CO)C(=O)N[C@H]1C[C@H](O[C@H]2C[C@](O)(C(=O)CO)Cc3c(O)c4c(c(O)c32)C(=O)c2c(OC)cccc2C4=O)O[C@@H](C)[C@H]1O` [2-hydroxyacetyl-hRSSYQ-SNle-DOX(3'), 2-hydroxyacetyl-hArgSerSerTyrGln-SerNle-DOX (3')] (Glycolyl-[hArg]SSYQS[Nle]-{Doxorubicin(3'-N)}), the “Time to 50% Substrate Cleavage by York PSA (Min), value marked *” value came to 60 min.

Another data set relates to DuPRO cells. Kind of data set: In vitro cytotoxicity of peptidyl derivatives of doxorubicin, Alamar Blue assay, DuPRO. Particulars: 3 days incubation, read-out: DuPRO cell kill EC 50 (μM), value in parentheses. The format is cell-based. The protocol: The cytotoxicities of the cleaveable oligopeptide-doxorubicin conjugates, prepared as described in Examples 3-6, against a line of cells which is known to be killed by unmodified doxorubicin was assessed with an Alamar Blue assay. Specifically, cell cultures of LNCap prostate tumor cells or DuPRO cells in 96 well plates was diluted with medium containing various concentrations of a given conjugate (final plate well volume of 200 μl). The cells were incubated for 3 days at 37° C., 20 μl of Alamar Blue is added to the assay well. The cells were further incubated and the assay plates were read on a EL-310 ELISA reader at the dual wavelengths of 570 and 600 nm at 4 and 7 hours after addition of Alamar Blue. Relative percentage viability at the various concentration of conjugate tested was then calculated versus control (no conjugate) cultures. If no salt is indicated, the free conjugate was tested.
For orientation: Alamar Blue is a resazurin reagent that responds to reducing activity.
As for `COc1cccc2c1C(=O)c1c(O)c3c(c(O)c1C2=O)C[C@@](O)(C(=O)CO)C[C@@H]3O[C@H]1C[C@H](NC(=O)[C@H](CC(C)C)NC(=O)[C@H](CO)NC(=O)[C@H](CCC(N)=O)NC(=O)[C@@H](NC(=O)[C@H](CO)NC(=O)[C@H](C)NC(=O)[C@H](CCCCNC(=N)N)NC(=O)CO)C2CCCCC2)[C@H](O)[C@H](C)O1` [2-hydroxyacetyl-hRASChgQ-SL-DOX(3'), 2-hydroxyacetyl-hArgAlaSerChgGln-SerLeu-DOX (3')] (Glycolyl-[hArg]AS[Chg]QSL-{Doxorubicin(3'-N)}), the EC50 was > 100 µM.
Still for that read-out and setting: as for `COCCOCCOCCOCCOCCOCCOCC(=O)N[C@@H](C)C(=O)N[C@@H](CO)C(=O)N[C@H](C(=O)N[C@@H](CCC(N)=O)C(=O)N[C@@H](CO)C(=O)N[C@@H](CC(C)C)C(=O)N[C@H]1C[C@H](O[C@H]2C[C@](O)(C(=O)CO)Cc3c(O)c4c(c(O)c32)C(=O)c2c(OC)cccc2C4=O)O[C@@H](C)[C@H]1O)C1CCCCC1` [PEG(6)-ASChgQ-SL-DOX(3'), PEG(6)-AlaSerChgGln-SerLeu-DOX (3')] (X1-AS[Chg]QSL-{Doxorubicin(3'-N)}), the figure is 100 µM; as for `COc1cccc2c1C(=O)c1c(O)c3c(c(O)c1C2=O)C[C@@](O)(C(=O)CO)C[C@@H]3O[C@H]1C[C@H](NC(=O)[C@H](CC(C)C)NC(=O)[C@H](CO)NC(=O)[C@H](CCC(N)=O)NC(=O)[C@@H](NC(=O)[C@H](CO)NC(=O)[C@H](CO)NC(=O)[C@H](Cc2cccnc2)NC(=O)[C@H](O)CO)C2CCCCC2)[C@H](O)[C@H](C)O1` [(d)(2,3-dihydroxypropionyl)-3PAL-SerSerChgGln-SerLeu-DOX (3')] ({Glyceroyl(2R)}-[3Pal]SS[Chg]QSL-{Doxorubicin(3'-N)}), > 100 µM.
Still for that read-out and setting: to `COc1cccc2c1C(=O)c1c(O)c3c(c(O)c1C2=O)C[C@@](O)(C(=O)CO)C[C@@H]3O[C@H]1C[C@H](NC(=O)[C@H](CC(C)C)NC(=O)[C@H](CO)NC(=O)[C@H](CO)NC(=O)[C@H](CO)NC(=O)[C@H](CCC(N)=O)NC(=O)[C@H](Cc2ccc(O)cc2)NC(=O)[C@H](CO)NC(=O)CO)[C@H](O)[C@H](C)O1` [2-hydroxyacetyl-SYQ-SSSL-DOX(3'), 2-hydroxyacetyl-SerTyrGln-SerSerSerLeu-DOX (3')] (Glycolyl-SYQSSSL-{Doxorubicin(3'-N)}) belongs 50 µM; to `COc1cccc2c1C(=O)c1c(O)c3c(c(O)c1C2=O)C[C@@](O)(C(=O)CO)C[C@@H]3O[C@H]1C[C@H](NC(=O)[C@H](CC(C)C)NC(=O)[C@H](CO)NC(=O)[C@H](CCC(N)=O)NC(=O)[C@H](Cc2ccc(O)cc2)NC(=O)[C@H](CO)NC(=O)[C@H](CO)NC(=O)[C@H](CCCCNC(=N)N)NC(=O)CO)[C@H](O)[C@H](C)O1` [2-hydroxyacetyl-hRSSYQ-SL-DOX(3'), 2-hydroxyacetyl-hArgSerSerTyrGln-SerLeu-DOX (3')] (Glycolyl-[hArg]SSYQSL-{Doxorubicin(3'-N)}), > 100 µM.

The target of a further data set is T1, free PSA. Kind of data set: Recognition of oligopeptides by free PSA (time to 50% cleavage, HPLC). The conditions noted are these: free psa. On the procedure:
The oligopeptides prepared as described in Example 1 were individually dissolved in PSA digestion buffer (12 mM tris(hydroxymethyl)-aminomethane pH8.0, 25 mM NaCl, 0.5 mM CaCl2) and the solution added to PSA at a molar ration of 100 to 1. The reaction is quenched after various reaction times by the addition of trifluoroacetic acid (TFA) to a final 1% (volume/volume). The quenched reaction was analyzed by HPLC on a reversed-phase C18 column using an aqueous 0.1% TFA/acetonitrile gradient. […] Oligopeptides containing free amine moieties (ie. comprising hArg, Orn, Lys and or 3PAL) were tested as TFA salts. All other oligopeptides were tested as neutral compounds.
As for `CC(C)C[C@H](NC(=O)[C@H](CO)NC(=O)[C@H](CCC(N)=O)NC(=O)[C@@H](NC(=O)[C@H](CCCCNC(=N)N)NC(=O)[C@H](CO)NC(=O)[C@@H](O)CO)C1CCCCC1)C(=O)O` [2(S)-2,3-dihydroxy propionylShRChgQSL-acid] ({Glyceroyl(2S)}-S[hArg][Chg]QSL-OH), the “Time to 50% Substrate Cleavage by York PSA (Min), values marked *” value is 35 min.
Still for that read-out and setting: to `CC(C)C[C@H](NC(=O)[C@H](CO)NC(=O)[C@H](CCC(N)=O)NC(=O)[C@@H](NC(=O)[C@H](CCCCNC(=N)N)NC(=O)[C@H](CO)NC(=O)CO)C1CCCCC1)C(=O)O` [2-hydroxyacetyl-ShRChgQ-SL-acid] (Glycolyl-S[hArg][Chg]QSL-OH) belongs 30 min; to `COCCOCCOCC(=O)N[C@@H](CCCCNC(=N)N)C(=O)N[C@@H](CO)C(=O)N[C@@H](CO)C(=O)N[C@H](C(=O)N[C@@H](CCC(N)=O)C(=O)N[C@@H](CO)C(=O)N[C@@H](CC(C)C)C(=O)O)C1CCCCC1` [PEG(2)-hRSSChgQ-SL-acid] ({Decanoyl(3,6,9-trioxa)}-[hArg]SS[Chg]QSL-OH), 40 min; to `COCCOCC(=O)N[C@@H](CO)C(=O)N[C@@H](CCCCNC(=N)N)C(=O)N[C@H](C(=O)N[C@@H](CCC(N)=O)C(=O)N[C@@H](CO)C(=O)N[C@@H](CC(C)C)C(=O)O)C1CCCCC1` [PEG(1)-ShRChgQ-SL-acid] (MeOCH2CH2OCH2CO-S[hArg][Chg]QSL-OH), 120 min.

The same data set, now with this note: free psa, pH 8.
Consider `CC(C)C[C@H](NC(=O)[C@H](CO)NC(=O)[C@H](CCC(N)=O)NC(=O)[C@@H](NC(=O)[C@H](CO)NC(=O)[C@H](C)NC(=O)[C@H](CCCCNC(=N)N)NC(=O)CO)C1CCCCC1)C(=O)O` [2-hydroxyacetyl-hRASChgQ-SL-acid] (Glycolyl-[hArg]AS[Chg]QSL-OH), for which the “Time to 50% Substrate Cleavage by York PSA” value turned out to be 70 min.
Same read-out and setting: as for `COCCOCCOCC(=O)N[C@@H](CO)C(=O)N[C@@H](CO)C(=O)N[C@@H](CO)C(=O)N[C@H](C(=O)N[C@@H](CCC(N)=O)C(=O)N[C@@H](CO)C(=O)N[C@@H](CC(C)C)C(=O)O)C1CCCCC1` [PEG(2)SSSChgQ-SL-acid] ({Decanoyl(3,6,9-trioxa)}-SSS[Chg]QSL-OH), the figure is 150 min; as for `CC(C)C[C@H](NC(=O)[C@H](CO)NC(=O)[C@H](CCC(N)=O)NC(=O)[C@@H](NC(=O)[C@H](CO)NC(=O)[C@H](CO)NC(=O)[C@H](Cc1cccnc1)NC(=O)[C@H](O)CO)C1CCCCC1)C(=O)O` [(d)2,3-dihydroxypropionyl-3PAL-SSChgQSL-acid] ({Glyceroyl(2R)}-[3Pal]SS[Chg]QSL-OH), 80 min; as for `CC(C)C[C@H](NC(=O)[C@H](CO)NC(=O)[C@H](CCC(N)=O)NC(=O)[C@@H](NC(=O)[C@H](CO)NC(=O)[C@H](CO)NC(=O)[C@H](CO)NC(=O)C(O)CO)C1CCCCC1)C(=O)O` (some centres unmarked) [2,3-dihydroxypropionyl-SSSChgQ-SL-acid] (X3-SSS[Chg]QSL-OH), 120 min.
The same measure, in the same setting: as for `CC(=O)N[C@@H](CCCCNC(=N)N)C(=O)N[C@@H](C)C(=O)N[C@@H](CO)C(=O)N[C@H](C(=O)N[C@@H](CCC(N)=O)C(=O)N[C@@H](CO)C(=O)N[C@@H](CC(C)C)C(=O)O)C1CCCCC1` [Ac-hRASChgQ-SL-acid] (Ac-[hArg]AS[Chg]QSL-OH), the figure is 50 min; as for `CC(C)C[C@H](NC(=O)[C@H](CO)NC(=O)[C@H](CCC(N)=O)NC(=O)[C@@H](NC(=O)[C@H](CCCCNC(=N)N)NC(=O)[C@H](CO)NC(=O)CO)C1CCCCC1)C(=O)O` [2-hydroxyacetyl-ShRChgQ-SL-acid] (Glycolyl-S[hArg][Chg]QSL-OH), 120 min.
Same read-out and setting: as for `CC(C)C[C@H](NC(=O)[C@H](CO)NC(=O)[C@H](CCC(N)=O)NC(=O)[C@@H](NC(=O)[C@H](CO)NC(=O)[C@H](CO)NC(=O)[C@@H](O)CO)C1CCCCC1)C(=O)O` [(I)2,3-dihydroxypropionyl-SSChgQ-SL-acid] ({Glyceroyl(2S)}-SS[Chg]QSL-OH), the figure is 180 min; as for `CC(C)C[C@H](NC(=O)[C@H](CO)NC(=O)[C@H](CCC(N)=O)NC(=O)[C@@H](NC(=O)[C@H](CO)NC(=O)[C@H](CO)NC(=O)[C@H](CCCCNC(=N)N)NC(=O)C(O)CO)C1CCCCC1)C(=O)O` (some centres unmarked) [2,3-dihydroxypropionyl-hRSSChgQ-SL-acid] (X3-[hArg]SS[Chg]QSL-OH), 50 min.
On to `CC(C)C[C@H](NC(=O)[C@H](CO)NC(=O)[C@H](CCC(N)=O)NC(=O)[C@@H](NC(=O)[C@H](CO)NC(=O)[C@H](CO)NC(=O)[C@H](CO)NC(=O)CO)C1CCCCC1)C(=O)O` [(OH-Ac)SSSChgQ-SL-acid] (Glycolyl-SSS[Chg]QSL-OH), for which the “Time to 50% Substrate Cleavage by York PSA” value came out at 120 min.
